Patent publication US10463594B2, “Cosmetic composition” (AJINOMOTO CO., INC., priority 2012, dated 2019)

B1: protein-glutaminase: protein-glutaminase of Chryseobacterium proteolyticum, secretory-expressed in Corynebacterium glutamicum, activated by protease, purified, dissolved in phosphate buffer (protein, listed as Chryseobacterium proteolyticum)
chain: LASVIPDVATLNSLFNQIKNQSCGTSTASSPCITFRYPVDGCYARAHKMRQILMNNGYDCEKQFVYGNLKASTGTCCVAWSYHVAILVSYKNASGVTEKRIIDPSLFSSGPVTDTAWRNACVNTSCGSASVSSYANTAGNVYYRSPSNSYLYDNNLINTNCVLTKFSLLSGCSPSPAPDVSSCGF

What was measured:
hair [1] = test: Measurement of swelling degree of hair; settings: 100×(D1−D0)/D0 of hair diameter
Method: Hair was immobilized in a concave part of a glass slide for biochemical count having a depth of the concave part of 200 μm (manufactured by NIPPON Genetics Co, Ltd.), a cover glass was placed on the glass slide to cover the concave part, the diameter of the hair was measured 10-14 times, and the mean thereof was calculated (D0). Thereafter, a sample was injected from the clearance between the cover glass and the glass slide, and left standing for 3 min or 5 min. The diameter of the hair was measured 10-14 times, and the mean was calculated (D1).
As the sample, ion exchange water, phosphate buffer (pH 6.2), protein-glutaminase solution (6.2 mg/mL, pH 6.2) and 1% aqueous ammonia (pH 11.8) were used. The swelling degree was calculated from the measured diameters of the hair (D0 and D1) according to the following formula. swelling degree (%)=100×(D1−D0)/D0

hair [2] = test: Observation of hair damage (microscopic images ×400); settings: 3 min after injection of sample
Method: In the test of the above-mentioned 1, the condition of the hair 3 min after injection of ion exchange water, protein-glutaminase solution, or 1% aqueous ammonia was observed.

perm-treated hair = test: Quantification of free ammonia produced by reaction of protein-glutaminase with perm-treated hair; assay type: biochemical, human; settings: 37° C., 1 hr
Method: Hair of Japanese women in their 20's was perm-treated and used as an experiment sample. The perm treatment included 1) immersing the hair in first perm liquid at 33° C. for 15 min and rinsing the first liquid with tap water at 35-40° C., and 2) immersing the hair in second perm liquid at 33° C. for 15 min and sufficiently rinsing same with tap water at 35-40° C. The continuous operation of 1) and 2) was repeated 4 times, and the hair was washed with 15% sodium laureth sulfate (EMAL E27C; Kao Corporation) and sufficiently rinsed with tap water at 35-40° C. The hair was immersed in a buffer, and treated with occasional stirring at room temperature for 10 min. The hair was combed out, hung while avoiding overlapped hair, and dried in a thermo-hygrostat room (23° C., 40% R.H.).
Using an Ammonia test kit (manufactured by Wako Pure Chemical Industries, Ltd.), the amount of free ammonia produced by reaction of protein-glutaminase with the above-mentioned perm-treated hair was quantified.
The protein-glutaminase solution (2 ml) at a concentration shown in Table 4 was added to a bundle of the above-mentioned perm-treated hair (0.25 g), and the amount of ammonia in a sample after reaction at 37° C. for 1 hr was measured. The amount of ammonia produced was shown as a value after subtraction of the amount of ammonia produced without addition of protein-glutaminase (Comparative Example 4).

[3] = test system: 3D cultured human skin model: TESTSKIN LSE-high; test: Permeability of FITC-labeled Gly-Gly-Gly to artificial cultured skin; assay type: cell-based; settings: protein-glutaminase solution 4 mg/ml, 100 μl, 37° C. 30 min before peptide; measured after 2, 5, 20 hr; versus phosphate buffer (−)
Method: Using glycylglycylglycine (hereinafter indicated as “Gly-Gly-Gly”) (manufactured by PEPTIDE INSTITUTE, INC.) as a peptide to be evaluated for skin permeability, the permeability of Gly-Gly-Gly to commercially available artificial cultured skin (3D cultured human skin model: TESTSKIN LSE-high, manufactured by Toyobo Co., Ltd.) was evaluated. Gly-Gly-Gly was labeled with fluorescein by using fluorescein isothiocyanate (FITC-I, manufactured by Chemical-Dojin Co., Ltd.) to enable highly sensitive detection.
The cultured skin is cultured on a polycarbonate membrane on the bottom of a transwell, and set on a 6-well assay plate. […] The permeability was evaluated by measuring the amount of FITC-labeled Gly-Gly-Gly that permeated the cultured skin to move into phosphate buffer (−).
First, a protein-glutaminase solution (4 mg/ml, 100 μl) was added to the top of the cultured skin and incubated at 37° C. for 30 min, after which a FITC-labeled Gly-Gly-Gly sample (100 μl) was added to the top of the cultured skin. After 2, 5, and 20 hr, the amount of FITC-labeled Gly-Gly-Gly that permeated the cultured skin and moved into phosphate buffer (−) was measured. […] The fluorescence intensity was measured under the conditions of exciting wavelength 492 nm and fluorescence wavelength 520 nm. The fluorescence intensity was measured using platereader SpectraMaxM2 (manufactured by Molecular Devices, LLC.).

Molecule	swelling degree (%) after 3 min (hair [1]; hair left standing in sample for 3 min) [%]	swelling degree (%) after 5 min (hair [1]; hair left standing in sample for 5 min) [%]	condition of the hair (hair damage) (hair [2])	concentration of protein-glutaminase solution at which it reacted with perm-treated hair (perm-treated hair)	permeability of FITC-labeled Gly-Gly-Gly through cultured skin (fluorescence intensity) [3]
N [Comparative Example 3, 1% aqueous ammonia]	11.1	11.3	cuticles on the hair surface were lifted		
B1				not less than 0.01 mg/ml	improved permeability of peptide
